Results: US9217007B2, “Platinum anticancer agents” (priority 2011, dated 2015)
Read-outs that look alike come from different tables or passages of the source.

Legend:
HEK-hOCT3 = assay: MTT cytotoxicity assay in HEK293 stably transfected with human OCT3; assay type: cell-based
Text: HEK293 cell lines, stably expressing hOCT1, hOCT2 and hOCT3.

[1] = Rate of inactivation of platinums by glutathione; assay type: physicochemical; settings: platinum drug 100 μM; [GSH] 6.75 mM; [NaCl] 4.62; absorption at 260 nm
Experimental: Platinum-based compound as described herein at a 100 μM concentration was reacted with physiological concentration of GSH and the absorption at 260 nm was measured to monitor the progress of the reaction. Absorption as a function of time (0≦t≦1440 min) for platinum concentration of zero was subtracted from the absorption at each platinum concentration. Initial rates were calculated from the early time points as change in absorption over change in time.
One major pathway by which these platinum drugs get inactivated in vivo is by reaction with glutathione (GSH). We mimicked this reaction with GSH in vitro using physiological concentrations of GSH and salts. Increase in absorption at 260 nm over period of time was monitored for progress of the reaction and initial rates were calculated from the early time points in terms of the change in absorption over change in time.

HEK-hNET = assay: Toxicity toward HEK cells stably transfected with Norepinephrine Transporter; assay type: cell-based, human; settings: selectivity HEK-EV vs HEK-hNET
Experimental: The term “resistance factor” is a measure of selectivity conferred upon the platinum-based compound by the inclusion of ligands that promote recognition by NET.
(§1) After overnight incubation, the platinum compound with or without an OCT inhibitor (disopyramide) was then be added to the culture medium to various concentrations. After exposure to the drug for 7 hours, the drug-containing medium was replaced with fresh, drug-free medium and the incubation was continued for 72 hours.

[2] = test system: LANS neuroblastoma cell line; assay: Toxicity against neuroblastoma cell line LANS; assay type: cell-based
Experimental: (§2) Compounds SM-73 and SM-85 are assayed against an array of neuroblastoma cell lines.

[3] = test system: SKNMC neuroblastoma cell line; assay: Toxicity against neuroblastoma cell line SKNMC; assay type: cell-based
Experimental: as §2

[4] = test system: NB1691 neuroblastoma cell line; assay: Toxicity against neuroblastoma cell line NB1691; assay type: cell-based
Experimental: as §2

[5] = test system: HEK-MOCK (untransfected HEK293 cells); assay: MTT cytotoxicity assay in untransfected HEK293 cells; assay type: cell-based, human; settings: 7 h drug exposure then 72 h drug-free
Experimental: (§3) Evaluation of compounds was carried out in an in-vitro cytotoxicity assay, involving a comparison between the effect of the platinum complex on human embryonic kidney cells (HEK293) transfected with human OCT1 (HEK-hOCT1) and OCT2 (HEK-hOCT2) versus those that are not transfected.
as §1
as §3, with “Evaluation of all three classes” for “Evaluation”

[6] = test system: SHSY5Y neuroblastoma cell line; assay: Toxicity against neuroblastoma cell line SHSY5Y; assay type: cell-based
Experimental: as §2

[7] = test system: Kelly neuroblastoma cell line; assay: Toxicity against neuroblastoma cell line Kelly; assay type: cell-based
Experimental: as §2

[8] = test system: SKNSH neuroblastoma cell line; assay: Toxicity against neuroblastoma cell line SKNSH; assay type: cell-based
Experimental: as §2

[9] = test system: SHEP neuroblastoma cell line; assay: Toxicity against neuroblastoma cell line SHEP; assay type: cell-based
Experimental: as §2

[10] = test system: HT29 colon cancer cell line; assay: Cytotoxicity in colon cancer cell line HT29 with and without cimetidine; assay type: cell-based
Experimental: (§4) Platinum uptake and platinum-DNA adduct formation was then measured in these transfected cell lines. In some cases, chemical inhibitors of OCT1 were used. In general, we used disopyramide (150 μM). […] In some cases, cimetidine (3 mM) was used as a general OCT inhibitor. Cytotoxicity of some of the leads was determined in colon cancer cell lines. Described below in some detail are the methods for these studies.
(§5) HEK293 cell lines, stably expressing hOCT1, hOCT2 and hOCT3. The following colon cancer cell lines were also used: HCT116, RKO, DLD, HT29 and SW620 purchased from American Type Tissue Culture collection.
as §1

[11] = test system: RKO colon cancer cell line; assay: Cytotoxicity in colon cancer cell line RKO with and without cimetidine; assay type: cell-based
Experimental: as §4, §5, §1

[12] = test system: HCT116 colon cancer cell line; assay: Cytotoxicity in colon cancer cell line HCT116 with and without cimetidine; assay type: cell-based
Experimental: as §4, §5, §1

[13] = test system: SW620 colon cancer cell line; assay: Cytotoxicity in colon cancer cell line SW620 with and without cimetidine; assay type: cell-based
Experimental: as §4, §5, §1

[14] = test system: DLD colon cancer cell line; assay: Cytotoxicity in colon cancer cell line DLD with and without cimetidine; assay type: cell-based
Experimental: as §4, §5, §1

[15] = test system: HEK293 transfected with human OCT1 (HEK-hOCT1); assay: MTT cytotoxicity assay in HEK293 stably transfected with human OCT1; settings: read-out: IC50 HEK-hOCT1; HEK293 stably transfected with human OCT1; MTT, 7 h exposure then 72 h
Experimental: as §3, §5, §1
as §3, with “Evaluation of all three classes” for “Evaluation”

[16] = test system: HEK293 transfected with human OCT2 (HEK-hOCT2); assay: MTT cytotoxicity assay in HEK293 stably transfected with human OCT2; settings: read-out: IC50 HEK-hOCT2; HEK293 stably transfected with human OCT2; MTT, 7 h exposure then 72 h
Experimental: as §3, §5, §1
as §3, with “Evaluation of all three classes” for “Evaluation”

neuroblastoma xenografts = assay: Antitumor efficacy against neuroblastoma xenografts in mice; assay type: in vivo; settings: compared to cisplatin (FIG. 8)
DNA in HEK cells = assay: DNA-binding of the platinum agents in HEK cells; assay type: cell-based, human; settings: compared to cisplatin
Experimental: After incubation, genomic DNA was isolated from the cell pellets using Wizard® Genomic DNA Purification Kit (Promega, Madison, Wis.) following the manufacturer's instructions. The genomic DNA was used for determination of platinum (ICP-MS) and DNA content (absorption spectrometry at 260 nm). Platinum-DNA adduct formation was expressed as amount of platinum per amount of DNA.

[17] = Toxicity evaluation of treated mice (CBC, kidney and liver function, ototoxicity); settings: mouse, in vivo
Experimental: An evaluation is being conducted in various body tissues/plasma to determine toxicity.
The SM-73 treated mice group was also evaluated for ototoxicity.

NET-expressing HEK cells = assay: Uptake of platinum compounds into NET-expressing HEK cells vs empty vector HEK cells; assay type: cell-based, human
Text: The success of our targeting strategy can be gauged in-vitro also through comparing the uptake of the platinum complex into cells. The actual effects of this increased uptake can in turn be ascertained and quantified through comparison of DNA-binding of the platinum complexes.
Accumulation was normalized to protein content.

[18] = test system: OCT1 (human, expressed in the cells; OCT1-dependent cytotoxicity); assay: MTT cytotoxicity assay in HEK293 stably transfected with human OCT1; settings: human
Experimental: as §3, §5, §1
as §3, with “Evaluation of all three classes” for “Evaluation”

[19] = test system: OCT2 (human, expressed in the cells; OCT2-dependent cytotoxicity); assay: MTT cytotoxicity assay in HEK293 stably transfected with human OCT2; settings: human
Experimental: as §3, §5, §1
as §3, with “Evaluation of all three classes” for “Evaluation”

[20] = HT29, absence of cimetidine, read-out: IC50
[21] = HT29, cimetidine 3 mM, read-out: IC50 (in presence of cimetidine)
[22] = RK0, absence of cimetidine, read-out: IC50
[23] = RK0, cimetidine 3 mM, read-out: IC50 (in presence of cimetidine)
[24] = HCT116, absence of cimetidine, read-out: IC50
[25] = HCT116, cimetidine 3 mM, read-out: IC50 (in presence of cimetidine)
[26] = SW620, absence of cimetidine, read-out: IC50
[27] = SW620, cimetidine 3 mM, read-out: IC50 (in presence of cimetidine)
[28] = absence of cimetidine, read-out: IC50
[29] = cimetidine 3 mM, read-out: IC50 (in presence of cimetidine)

| SMILES | IC50 (HEK-hOCT3) | Initial Rate of reaction with glutathione [1] | Resistance Factor (HEK-hNET) | IC50 [2] | IC50 [3] | IC50 [4] | IC50 [5] | IC50 [6] | IC50 [7] | IC50 [8] | IC50 [9] | IC50 [10, 20] | IC50 [10, 21] | IC50 [11, 22] | IC50 [11, 23] | IC50 [12, 24] | IC50 [12, 25] | IC50 [13, 26] | IC50 [13, 27] | IC50 [14, 28] | also measured |
| --- | --- | --- | --- | --- | --- | --- | --- | --- | --- | --- | --- | --- | --- | --- | --- | --- | --- | --- | --- | --- | --- |
| N.N.[Cl][Pt][Cl] [Cisplatin] | 4.84 µM | 0.1173 Absorption unit/hr | 1.8 | 6.16 µM | 9.63 µM | 12.4 µM | 2.62 µM | 18.6 µM | 19.9 µM | 3.77 µM | 24.5 µM |  |  |  |  |  |  |  |  |  |  |
| O=C1[O][Pt]2([NH][C@@H]3CCCC[C@H]3[NH]2)[O]C1=O [Oxaliplatin, reference compound] | 1.32 µM | 0.0909 Absorption unit/hr |  | 15.9 µM | 19.9 µM | 29.4 µM | 1.62 µM | 18.8 µM | 20.4 µM | 15.5 µM | 24.8 µM | 13.2 ± 3.3 µM | 61.2 µM | 2.9 ± 0.77 µM | 41.7 µM | 6.14 ± 1.8 µM | 66.5 µM | 7.16 ± 3.59 µM | 40 µM | 21.5 ± 5.3 µM | IC50 [14, 29]: 151 µM |
| [NH2][Pt]([NH2])([Cl])[N]1CCN(c2ccccc2)CC1 [SM71] |  |  |  |  |  |  |  |  |  |  |  |  |  |  |  |  |  |  |  |  | IC50 [15]: 0.745 ± 0.003 µM; IC50 [16]: 1.26 ± 0.319 µM |
| [NH3+][Pt-2]([Cl])([Cl])[NH+]1CCN(c2ccccc2)CC1 [SM73] |  | 0.1132 Absorption unit/hr | 5.5 | 5.24 µM | 13.6 µM | 9.72 µM | 12.3 ± 0.759 µM | 13.8 µM | 13.1 µM | 3.58 µM | 16.5 µM | 14.5 ± 8.54 µM | 109 µM | 19.6 ± 1.17 µM | 75.8 µM | 18.3 ± 2.28 µM | 71.2 µM | 33 ± 5.27 µM | 147 µM | 48.9 ± 8.5 µM | Resistance Factor ([10]; HT29, ratio of IC50 in presence and absence of cimetidine): >7; Resistance Factor ([11]; RK0, ratio of IC50 in presence and absence of cimetidine): 3.87; antitumor efficacy against neuroblastoma xenografts (neuroblastoma xenografts): retains the antitumor efficacy of cisplatin to a significant extent; Resistance Factor ([12]; HCT116, ratio of IC50 in presence and absence of cimetidine): 3.88; IC50 [15]: 0.036 ± 0.004 µM; Resistance Factor ([13]; SW620, ratio of IC50 in presence and absence of cimetidine): 4.45; DNA-binding (DNA in HEK cells): increased DNA-binding; ototoxicity [17]: No ototoxicity was observed; IC50 [14, 29]: 195 µM; Resistance Factor ([14]; ratio of IC50 in presence and absence of cimetidine): 3.98; IC50 [16]: 0.005 ± 0.001 µM; selectivity for accumulation into NET-expressing HEK cells (NET-expressing HEK cells): 3.25 fold |
| [NH2][Pt]([NH2])([Cl])[N]1CCN(c2ccccc2)CC1 [SM78] |  |  |  |  |  |  |  |  |  |  |  |  |  |  |  |  |  |  |  |  | IC50 at 7 h ([18]; IC50 HEK-hOCT1, HEK293 stably transfected with human OCT1, MTT, 7 h exposure then 72 h): 0.988 ± 0.03 µM; IC50 at 7 h ([19]; IC50 HEK-hOCT2, HEK293 stably transfected with human OCT2, MTT, 7 h exposure then 72 h): 2.35 ± 0.313 µM |
| [NH2][Pt]([Cl])([Cl])[N]1CCN(c2ccc(F)cc2)CC1 [SM85] |  | 0.1037 Absorption unit/hr |  |  |  |  |  |  |  |  |  |  |  |  |  |  |  |  |  |  | IC50 at 7 h [18]: 0.071 ± 0.014 µM; DNA-binding (DNA in HEK cells): increased DNA-binding; IC50 at 7 h [19]: 0.208 ± 0.035 µM |
